Reference: patent publication US8501781B2 (priority 2009, dated 2013)
Marks after values point to notes of the source that are not given here.

Assay: logP by HPLC (EEC Directive 79/831 Annex V.A8)
Format: physicochemical
Details: for chromatographic logP: pH 2.7, given in the preparation examples, read-out: log P (pH 2.7)
[1] = [b] LC-MS, acidic range, pH 2.7, 0.1% aqueous formic acid and acetonitrile
[2] = [c] LC-MS, neutral range, pH 7.8, 0.001 molar aqueous ammonium bicarbonate and acetonitrile

SMILES | logP [1] | further results
Cc1ccc(C)c(NC(=O)N2CCC(c3nc(C(=O)Oc4c(C)cccc4Br)cs3)CC2)c1 [Example 141] | 3.82^[b] | 
COc1cccc(Br)c1OC(=O)c1csc(C2CCN(C(=O)Nc3cc(C)ccc3C)CC2)n1 [Example 142] | 3.56^[b] | 
Cc1ccc(C)c(NC(=O)N2CCC(c3nc(C(=O)Oc4c(C)cccc4Cl)cs3)CC2)c1 [Example 143] | 3.76^[b] | 
Cc1ccc(C)c(NC(=O)N2CCC(c3nc(C(=O)Oc4c(Br)cccc4Br)cs3)CC2)c1 [Example 144] | 3.93^[b] | 
COc1cccc(F)c1OC(=O)c1csc(C2CCN(C(=O)Nc3cc(C)ccc3C)CC2)n1 [Example 145] | 3.28^[b] | 
Cc1ccc(C)c(NC(=O)N2CCC(c3nc(C(=O)Oc4ccccc4Br)cs3)CC2)c1 [Example 146] | 3.58^[b] | 
Cc1ccc(C)c(NC(=O)N2CCC(c3nc(C(=O)Oc4ccccc4F)cs3)CC2)c1 [Example 147] | 3.27^[b] | 
Cc1ccc(C)c(NC(=O)N2CCC(c3nc(C(=O)Oc4ccccc4Cl)cs3)CC2)c1 [Example 148] | 3.51^[b] | 
Cc1ccc(C)c(NC(=O)N2CCC(c3nc(C(=O)Oc4c(F)cccc4Cl)cs3)CC2)c1 [Example 149] | 3.62^[b] | 
Cc1ccc(C)c(NC(=O)N2CCC(c3nc(C(=O)Oc4c(F)cccc4F)cs3)CC2)c1 [Example 150] | 3.39^[b] | 
Cc1ccc(C)c(NC(=O)N2CCC(c3nc(C(=O)Oc4c(Cl)cccc4Cl)cs3)CC2)c1 [Example 151] | 3.82^[b] | 
Cc1ccc(C)c(NC(=O)N2CCC(c3nc(C(=O)Oc4c(F)cccc4Br)cs3)CC2)c1 [Example 152] | 3.86^[b] | 
Cc1ccc(C)c(NC(=O)N2CCC(c3nc(C(=O)OC(C)c4ccccc4F)cs3)CC2)c1 (centres unmarked) [Example 153] | 3.71^[b] | 
Cc1ccc(C)c(NC(=O)N2CCC(c3nc(C(=O)Oc4ccccc4I)cs3)CC2)c1 [Example 154] | 3.69^[b] | 
Cc1ccc(C)c(NC(=O)N2CCC(c3nc(C(=O)OCc4c(F)cccc4Br)cs3)CC2)c1 [Example 155] | 3.79^[b] | 
Cc1ccc(C)c(NC(=O)N2CCC(c3nc(C(=O)OC(C)c4c(Cl)cccc4Cl)cs3)CC2)c1 (centres unmarked) [Example 156] | 4.35^[b] | 
Cc1ccc(C)c(NC(=O)N2CCC(c3nc(C(=O)OCCc4c(Cl)cccc4Cl)cs3)CC2)c1 [Example 157] | 4.29^[b] | 
Cc1ccc(C)c(NC(=S)N2CCC(c3nc(C(=O)OC4CCCCC4c4ccccc4)cs3)CC2)c1 (centres unmarked) [Example 158] | 4.73^[b] | 
Cc1ccc(Cl)cc1NC(=S)N1CCC(c2nc(C(=O)OC3CCCCC3c3ccccc3)cs2)CC1 (centres unmarked) [Example 159] | 4.83^[b] | 
Cc1ccc(C)c(NC(=O)N2CCC(c3nc(C(=O)OC4CCCCC4c4ccc(F)c(F)c4)cs3)CC2)c1 (centres unmarked) [Example 160] | 4.52^[b] | 
Cc1ccc(Cl)cc1NC(=O)N1CCC(c2nc(C(=O)OCc3c(F)cccc3Cl)cs2)CC1 [Example 161] | 3.89^[b] | 

SMILES | logP [1] | further results
COc1ccc(C)cc1NC(=O)N1CCC(c2nc(C(=O)OCc3c(F)cccc3Cl)cs2)CC1 [Example 162] | 3.92^[b] | 
Cc1ccc(Cl)cc1NC(=O)N1CCC(c2nc(C(=O)OCc3c(F)cccc3F)cs2)CC1 [Example 163] | 3.62^[b] | 
COc1ccc(C)cc1NC(=O)N1CCC(c2nc(C(=O)OCc3c(F)cccc3F)cs2)CC1 [Example 164] | 3.66^[b] | 
Cc1cc(C(F)(F)F)nn1CC(=O)N1CCC(F)(c2nc(C(=O)OCc3c(F)cccc3F)cs2)CC1 [Example 165] | 3.65 | logP [2]: 3.67
Cc1ccc(Cl)cc1NC(=O)N1CCC(F)(c2nc(C(=O)OCc3c(F)cccc3F)cs2)CC1 [Example 166] | 3.87 | logP [2]: 3.86
Cc1ccc(Cl)cc1NC(=O)N1CCC(F)(c2nc(C(=O)OC3CCCCC3)cs2)CC1 [Example 167] | 4.33 | logP [2]: 4.32
O=C(OCc1c(F)cccc1F)c1csc(C2(F)CCN(C(=O)Cn3nc(C(F)F)cc3C(F)F)CC2)n1 [Example 168] | 3.53 | logP [2]: 3.56
COc1ccc(C)cc1NC(=O)N1CCC(F)(c2nc(C(=O)OC3CCCCC3)cs2)CC1 [Example 169] | 4.4 | logP [2]: 4.42
Cc1cc(C(F)(F)F)nn1CC(=O)N1CCC(F)(c2nc(C(=O)OC3CCCCC3)cs2)CC1 [Example 170] | 4.07 | logP [2]: 4.09
Cc1ccc(C)c(NC(=O)N2CCC(F)(c3nc(C(=O)OCc4c(F)cccc4F)cs3)CC2)c1 [Example 171] | 3.69 | logP [2]: 3.71
Cc1ccc(C)c(NC(=O)N2CCC(F)(c3nc(C(=O)OC4CCCCC4)cs3)CC2)c1 [Example 172] | 4.15^[c]; 4.15^[b] | logP [2]: 4.15^[c]; 4.15^[b]
COc1ccc(C)cc1NC(=O)N1CCC(F)(c2nc(C(=O)OCc3c(F)cccc3F)cs2)CC1 [Example 173] | 3.80 | logP [2]: 3.92
COCCOCC(=O)N1CCC(c2nc(C(=O)OC3CCCCC3)cs2)CC1 [Example 174] |  | logP ([a] acidic range, pH 2.3, 0.1% aqueous phosphoric acid and acetonitrile): 2.37^[a]
O=C(OCc1c(F)cccc1F)c1cnc(C2CCN(C(=O)Cn3nc(C(F)F)cc3C(F)F)CC2)s1 [Example 175] | 3.45^[b] | 
O=C(Oc1c(F)cccc1Cl)c1cnc(C2CCN(C(=O)Cn3nc(C(F)F)cc3C(F)F)CC2)s1 [Example 176] | 3.67^[b] | 
Cc1cccc(COC(=O)c2cnc(C3CCN(C(=O)Cn4nc(C(F)F)cc4C(F)F)CC3)s2)c1C [Example 177] | 4.00^[b] | 
O=C(OC1CCCCC1)c1cnc(C2CCN(C(=O)Cn3nc(C(F)F)cc3C(F)F)CC2)s1 [Example 178] | 3.97^[b] | 
O=C(OC1CCCCC1)c1csc(C2CCNCC2)n1 [VII-1, 4-{4-[(Cyclohexyloxy)carbonyl]-1,3-thiazol-2-yl}piperidinium chloride] |  | chromatographic logP: 1.25
CC(C)(C)OC(=O)N1CCC(c2nc(C(=O)O)cs2)CC1 [XXXI-1, 2-[1-(tert-Butoxycarbonyl)piperidin-4-yl]-1,3-thiazole-4-carboxylic acid] |  | chromatographic logP: 2.04
CC(C)(C)OC(=O)N1CCC(c2nc(C(=O)OC3CCCCC3)cs2)CC1 [XXXIII-1, tert-Butyl 4-{4-[(cyclohexyloxy)carbonyl]-1,3-thiazol-2-yl}piperidine-1-carboxylate] |  | chromatographic logP: 4.62
